Results reported in patent publication US20250188411A1, “METHOD FOR SELECTIVE REMOVAL OF […] PLURIPOTENT STEM CELLS” (Buddhist Tzu Chi Medical Foundation, priority 2023, published 2025).

Legend:
[1] = test system: undifferentiated pluripotent stem cells expressing Oct-4; experiment: Oct-4 / N-cadherin immunofluorescence on day 5 of neural stem cell adhesion differentiation; assay type: cell-based, human; details: 50, 100 and 200 μM for 24 hours on day 5 of differentiation, FIG. 6
Method: 4. Neural Stem Cell Adhesion Differentiation of Human iPSCs (Neural Stem Cell Adhesion Differentiation Method): Human iPSCs, cultured in a feeder-free environment, were subcultured at a 1:10 ratio for neural stem cell differentiation. The differentiation was induced by using a neural induction medium composed of DMEM/F12 (2:1) and N2 supplement, with the addition of basic FGF (10 mg/mL), SB431542 (2 μM), and CHIR99021 (3 μM). The medium was changed every two days with proteins and small molecules re-added. Culture time for this neural stem cell adhesion differentiation is up to 7 days.
(§1) a. Drug Efficacy and Concentration Testing: n-Butylidenephthalide was diluted to different concentrations and administered to cells at final concentrations ranging from 50 to 750 μM. The types of administered cells include cultured human iPSCs, human iPSCs aggregated into SFEBs for one day, neural stem cells on day 10 of SFEB differentiation, neurons on day 25 of SFEB differentiation, and cells on day 5 of neural differentiation by the adhesion. The concentrations and treatment durations were as described in the Examples.
a. Immunofluorescence Staining Method: Chamber slides were surface-treated with 1% basement membrane matrix for 3 to 4 hours, and the slides were set aside after the matrix was removed. […] The slides were stored in the dark at 4° C. for subsequent analysis under a fluorescence microscope. […]

[2] = test system: human induced pluripotent stem cells (iPSCs); experiment: Treatment of cultured human iPSCs with n-butylidenephthalide, cell morphology and survival; assay type: cell-based; details: for number of human iPSCs versus control (Ctrl) and DMSO control: 100 μM
Method: 1. Culture of iPSCs in Essential 8 Feeder-Free Culture Medium: Human iPSCs were cultured in Essential 8 medium (Gibco) in culture dishes treated with basement membrane matrix (Matrigel). Subculture was performed when the cells reached 70% to 80% confluence, approximately 3 to 5 days. During subculture, the cells were rinsed twice with PBS until the edges began to lift, followed by treatment with a cell dissociation regent (Accutase) for 1 to 5 minutes to round up most of the cells. The cell dissociation regent was then diluted with DMEM/F12, and DMEM medium was added. The cells were scraped with even force by a cell scraper, dispersed into cell mass with appropriate size by mechanical force, and plated at an appropriate ratio (about 1:5 to 1:10) with 10 μM of Y27632 added.
as §1
Human induced pluripotent stem cells (iPSCs) were collected and cultured in Essential 8 medium without a feeder layer. After 24 hours of treatment with different concentrations of n-butylidenephthalide (100 μM, 200 μM, 500 μM, and 750 μM), the cell morphology was shown in FIG. 1A.

[3] = test system: embryoid bodies derived from human iPSCs; experiment: Treatment of embryoid bodies from human iPSCs (SFEB suspension, one day), morphology and trypan blue staining; assay type: cell-based; details: 24 hours
Method: (§2) Step 1: iPSCs were aggregated into suspended embryoid bodies (EBs), which is an initial step of differentiation. iPSCs were treated with 1 mg/mL Dispase II until the edges rolled up, then rinsed three times with PBS. The iPSCs were collected by a cell scraper and dispersed into cell mass with appropriate size by visual inspection of pipet. After suspended in Essential 6 medium containing RevitaCell, and the iPSCs were transferred to a sterile, non-adherent 6 cm2 culture plate for a 2-day suspension culture, with daily medium changing.
as §1
Cultured and collected iPSCs were aggregated into spheres using the SFEB suspension method and suspended in culture medium to simulate the three-dimensional structure of general pluripotent cell differentiation and transplantation. After only one day of suspension differentiation, the cells aggregated into structurally complete spheres (embryoid bodies).

[4] = test system: neuronal cells differentiated from human iPSCs; experiment: Treatment of neuronal cell spheroids on day 25 of SFEB differentiation, morphology and NeuN/NF immunofluorescence; assay type: cell-based
Method: (§3) 3. Neural Differentiation of Human iPSCs Using the Serum-Free Embryoid Body (SFEB) Method: The differentiation of iPSCs into neural cells was performed in four steps. The first three steps involved SFEB suspension, in which suspended spheroid cells were cultured for 35 days, and the fourth step is a 3-day cell adhesion growth:
as §2
(§4) Step 2: The EBs were transferred to a 15 mL centrifuge tube for settlement at room temperature, and the EBs were cultured in suspension for 2 days by adding neural induction medium (NI medium, Gibco) after removal of the supernatant. […]
(§5) Step 4: The cells were attached to a culture plate coated with 1% basement membrane matrix or laminin/ornithine. […] The cells grow outward from the center of the colony, and after 3 days of continued culture, the cells were ready for experimentation. […]

[5] = test system: differentiated neurons derived from human iPSCs; experiment: Calcium ion imaging of differentiated neurons after KCl and glutamic acid stimulation; assay type: cell-based; details: tested day 38
Method: d. Calcium Ion Imaging Analysis: Cells were seeded onto 10 mm diameter coverslips coated with Geltrex and cultured in NB medium supplemented with RevitaCell and Compound E for 3 days. A 1 μM solution of Fluo-4 was prepared in physiological buffer. The coverslips were incubated in the Fluo-4 solution at 37° C. for 40 minutes, followed by incubation in physiological buffer at 37° C. for 20 minutes. The coverslips were then transferred to a calcium imaging chamber for perfusion imaging. The cells were perfused with physiological buffer for 30 seconds, then switched to 60 mM KCl perfusion for one minute, followed by physiological buffer perfusion for five minutes. Subsequently, the cells were perfused with 1 mM L-glutamic acid for one minute, followed by physiological buffer perfusion for five minutes. Images were captured using a Nikon ECLIPSE Ti2-E microscope and analyzed with NIS-Elements AR software.
Three sets of cells were prepared: one set of cells cultured without n-butylidenephthalide treatment (Ctrl), another set cultured with 500 μM n-butylidenephthalide for 120 hours on day 10 of differentiation (NPC-BP500), and a third set cultured with 500 μM n-butylidenephthalide for 120 hours on day 25 of differentiation (Neuron-BP500). […]

[6] = test system: neural stem cells differentiated from human iPSCs; experiment: Treatment of neural stem cells on day 10 of SFEB differentiation, morphology and NeuN/NF immunofluorescence; assay type: cell-based
Method: as §3, §2, §4, §5

[7] = test system: dopamine neurons differentiated from human iPSCs; experiment: Identification of differentiating dopamine neurons (CHSF-DA method): markers, dopamine ELISA, patch-clamp; assay type: cell-based; details: 100 μM on days 23 to 28 of CHSF-DA differentiation, FIGS. 8A to 8M
Method: 2. Dopaminergic Neuron Adherent Differentiation of Human iPSCs (CHSF-DA Differentiation Method): Human iPSCs, cultured in feeder-free environment, were subcultured at a 1:10 ratio for dopaminergic neurons differentiation. For induction, a neural induction medium composed of DMEM/F12 (2:1) and N2 supplement were used and dopaminergic precursor cell-inducing factors basic FGF (FGF-basic, as known as FGF-2 or bFGF) (10 mg/mL), SB431542 (2 μM), CHIR99021 (7.5 μM), SAG (1 μM), and LDN193189 (0.2 μM) were added in days 1 to 12 of the differentiation process. On day 13 of the differentiation process, the medium was switched to a neuron culture medium (Neurobasal medium and N2/B27 supplements), with SAG (0.5 μM) added from days 13 to 18. SAG was removed on day 18, and 100 μM of n-butylidenephthalide was added on days 23 to 28 for a total of 6 days. The cells were subsequently cultured in Neurobasal medium with N2/B27 supplements, the medium was changed every 2 days during the differentiation process with proteins and small molecules re-added.
b. Application of n-Butylidenephthalide in Dopaminergic Neuron Preparation: 100 μM of n-Butylidenephthalide was added from days 23 to 28 during the CHSF-DA differentiation process for a total of 6 days.
a. […] The slides were stored in the dark at 4° C. for subsequent analysis under a fluorescence microscope. […]

[8] = test system: residual undifferentiated pluripotent stem cells; details: early treatment; cited from earlier work

CCCC=C1OC(=O)c2ccccc21 [n-butylidenephthalide]
proportion of undifferentiated pluripotent stem cells expressing Oct-4 [1]: decreased significantly | number of human iPSCs versus control (Ctrl) and DMSO control ([2]; 24 hours, FIG. 1A): significantly lower | number of human iPSCs versus control (Ctrl) and DMSO control ([2]; 48 hours, FIG. 1B): significantly lower | cell morphology of human iPSCs ([2]; 200 μM, 48 hours, FIG. 1B): obvious floating and cell death | adherence and survival of human iPSCs ([2]; concentrations above 500 μM, 24 hours, FIG. 1A): did not adhere or survive | survival of human iPSCs ([2]; concentrations above 500 μM, 48 hours, FIG. 1B): No cells survived | viable cells by trypan blue staining ([3]; 200 μM): decrease in viable cells | viable cells by trypan blue staining ([3]; 500 μM): no viable cells were observed | morphology of suspended spheres (embryoid bodies) ([3]; 500 μM, FIG. 2): all dispersed and died | damage to neuronal cell spheroids or cell death ([4]; 50, 100, 200 and 500 μM for 120 hours from day 25 of differentiation, FIG. 4B): no damage to the spheroids or cell death was observed | NeuN and NF expression and morphology of treated mature neurons ([4]; treated from day 25, cultured until day 38, FIG. 4C): exhibiting typical nerve fiber morphology | calcium ion changes after KCl and glutamic acid stimulation versus Ctrl ([5]; NPC-BP500: 500 μM for 120 hours on day 10 of differentiation): no statistically significant differences | calcium ion changes after KCl and glutamic acid stimulation versus Ctrl ([5]; Neuron-BP500: 500 μM for 120 hours on day 25 of differentiation): no statistically significant differences | cell death or morphological changes of suspended neural stem cell spheres ([6]; 50, 100, 200 and 500 μM for 120 hours from day 10 of differentiation, FIG. 3A): no cell death or morphological changes were observed | ability of treated neural stem cells to differentiate into mature neurons (NeuN, NF) ([6]; treated from day 10, cultured until day 38, FIG. 3B): able to differentiate normally into mature neurons | effect on specific protein expression and neurological function of dopamine neurons [7]: did not affect the expression of specific proteins or the neurological function of dopamine neurons

O=c1c(O)c(-c2ccc(O)c(O)c2)oc2cc(O)cc(O)c12 [quercetin]
presence of residual undifferentiated pluripotent stem cells [8]: can reduce
